# Patent publication US8697380B2, “Method for detecting compounds modulating dimers of VFT domain membrane proteins” (CIS Bio International, priority 2009, dated 2014)
# Biological target: mGluR2-mGluR2 dimer (Rattus norvegicus, UniProt P31421)
# Details: for change in TRF520 signal in the presence of the compound: delay 50 μs, integration time 450 μs, BG-Lumi4-Tb/BC-fluorescein, dose-dependent; for maximum variation of TRF520 signal: dose-response up to 100 μM DCG-IV / 316 μM glutamate
# Chain of mGluR2-mGluR2 dimer (P31421 23-872): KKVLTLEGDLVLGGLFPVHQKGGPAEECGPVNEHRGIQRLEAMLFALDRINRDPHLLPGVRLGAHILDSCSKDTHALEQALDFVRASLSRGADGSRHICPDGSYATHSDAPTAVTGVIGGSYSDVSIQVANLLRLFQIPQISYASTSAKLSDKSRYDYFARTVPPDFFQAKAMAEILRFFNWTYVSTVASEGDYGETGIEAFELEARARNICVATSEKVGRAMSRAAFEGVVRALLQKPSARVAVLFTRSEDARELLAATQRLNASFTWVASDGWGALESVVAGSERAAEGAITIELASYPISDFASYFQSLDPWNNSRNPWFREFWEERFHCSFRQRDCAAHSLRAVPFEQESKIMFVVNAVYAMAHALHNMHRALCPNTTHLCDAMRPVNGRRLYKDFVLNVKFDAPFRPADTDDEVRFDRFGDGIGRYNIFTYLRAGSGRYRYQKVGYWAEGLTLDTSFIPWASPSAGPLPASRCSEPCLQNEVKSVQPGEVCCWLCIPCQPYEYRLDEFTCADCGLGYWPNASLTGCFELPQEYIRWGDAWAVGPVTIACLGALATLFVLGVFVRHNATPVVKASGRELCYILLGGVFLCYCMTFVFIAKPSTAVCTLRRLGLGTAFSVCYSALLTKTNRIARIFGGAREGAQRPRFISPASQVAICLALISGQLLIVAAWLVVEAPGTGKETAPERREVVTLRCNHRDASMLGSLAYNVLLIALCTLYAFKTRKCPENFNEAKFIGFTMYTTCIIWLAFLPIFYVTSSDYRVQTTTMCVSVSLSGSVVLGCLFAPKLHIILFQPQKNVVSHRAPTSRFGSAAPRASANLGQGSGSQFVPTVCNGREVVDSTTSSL
# Chain of mGluR2-mGluR2 dimer (P31421 23-872): as above
maximum variation of TRF520 signal [%],"EC50 (read-out: concentration necessary for obtaining a variation equal to half the maximum variation (close to the pharmacological EC50), TRF520 signal, printed value is given as the pharmacological EC50) [nM]","variation in TRF520 (glutamate 100 μM, in the absence of the antagonist LY341495) [%]",SMILES,"TRF520 signal for a given glutamate concentration, in the presence versus absence of the modulator (4-MPPTS 10 μM, glutamate 1-1000 μM)",change in TRF520 signal in the presence of the compound
–,–,–,COc1ccccc1Oc1ccc(N(Cc2cccnc2)S(=O)(=O)CC(F)(F)F)cc1 [4-MPPTS],greater decrease in signal,–
30,~400,–,N[C@H](C(=O)O)C1[C@@H](C(=O)O)[C@@H]1C(=O)O (stereo partly shown) [DCG-IV],–,inhibiting the TRF520 signal in a dose-dependent manner
50,–,50,"N[C@@H](CCC(=O)O)C(=O)O [glutamate, L-glutamic acid]",–,decrease in TRF520
